According to ChEMBL document CHEMBL4024727, “Synthesis and antimycobacterial screening of new thiazolyl-oxazole derivatives” (Eur J Med Chem, 2017):
In brackets after ≈: the same amount, converted by molar mass.

What was measured:
[1] = test system: Mycobacterium tuberculosis; experiment: Growth inhibition of Mycobacterium tuberculosis H37Ra ATCC 25177 at 30 ug/ml by XTT dye based two-fold dilution method relative to control; type: functional; conditions: read-out: GI
[2] = test system: Mycobacterium tuberculosis; experiment: Growth inhibition of Mycobacterium tuberculosis H37Ra ATCC 25177 at 10 ug/ml by XTT dye based two-fold dilution method relative to control; type: functional; conditions: read-out: GI
[3] = test system: Mycobacterium tuberculosis; experiment: Growth inhibition of Mycobacterium tuberculosis H37Ra ATCC 25177 at 3 ug/ml by XTT dye based two-fold dilution method relative to control; type: functional; conditions: read-out: GI
[4] = test system: Mycobacterium tuberculosis; experiment: Growth inhibition of Mycobacterium bovis BCG ATCC 35743 at 30 ug/ml by nitrate reductase based two-fold dilution assay relative to control; type: functional; conditions: BCG str. ATCC 35743, read-out: GI
[5] = test system: Mycobacterium tuberculosis; experiment: Growth inhibition of Mycobacterium bovis BCG ATCC 35743 at 10 ug/ml by nitrate reductase based two-fold dilution assay relative to control; type: functional; conditions: BCG str. ATCC 35743, read-out: GI
[6] = test system: Mycobacterium tuberculosis; experiment: Growth inhibition of Mycobacterium bovis BCG ATCC 35743 at 1 ug/ml by nitrate reductase based two-fold dilution assay relative to control; type: functional; conditions: BCG str. ATCC 35743, read-out: GI
[7] = test system: Mycobacterium tuberculosis; experiment: Antitubercular activity against Mycobacterium tuberculosis H37Ra ATCC 25177 dormant stage by XTT dye based two-fold dilution method; type: functional
[8] = test system: Mycobacterium tuberculosis; experiment: Antitubercular activity against Mycobacterium bovis BCG ATCC 35743 dormant stage by nitrate reductase based two-fold dilution assay; type: functional; conditions: BCG str. ATCC 35743
Escherichia coli [9] = experiment: Growth inhibition of Escherichia coli NCIM 2576 at 30 ug/ml measured after 8 hrs relative to control; type: functional; conditions: NCIM 2576, 8 h, read-out: GI
Escherichia coli [10] = experiment: Growth inhibition of Escherichia coli NCIM 2576 at 10 ug/ml measured after 8 hrs relative to control; type: functional; conditions: NCIM 2576, 8 h, read-out: GI
Escherichia coli [11] = experiment: Growth inhibition of Escherichia coli NCIM 2576 at 1 ug/ml measured after 8 hrs relative to control; type: functional; conditions: NCIM 2576, 8 h, read-out: GI
Pseudomonas fluorescens [12] = experiment: Growth inhibition of Pseudomonas fluorescens NCIM 2059 at 30 ug/ml measured after 8 hrs relative to control; type: functional; conditions: NCIM 2059, 8 h, read-out: GI
Pseudomonas fluorescens [13] = experiment: Growth inhibition of Pseudomonas fluorescens NCIM 2059 at 10 ug/ml measured after 8 hrs relative to control; type: functional; conditions: NCIM 2059, 8 h, read-out: GI
Pseudomonas fluorescens [14] = experiment: Growth inhibition of Pseudomonas fluorescens NCIM 2059 at 1 ug/ml measured after 8 hrs relative to control; type: functional; conditions: NCIM 2059, 8 h, read-out: GI
Staphylococcus aureus [15] = experiment: Growth inhibition of Staphylococcus aureus NCIM 2602 at 30 ug/ml measured after 12 hrs relative to control; type: functional; conditions: NCIM 2602, 12 h, read-out: GI
Staphylococcus aureus [16] = experiment: Growth inhibition of Staphylococcus aureus NCIM 2602 at 10 ug/ml measured after 12 hrs relative to control; type: functional; conditions: NCIM 2602, 12 h, read-out: GI
Staphylococcus aureus [17] = experiment: Growth inhibition of Staphylococcus aureus NCIM 2602 at 1 ug/ml measured after 12 hrs relative to control; type: functional; conditions: NCIM 2602, 12 h, read-out: GI
Bacillus subtilis [18] = experiment: Growth inhibition of Bacillus subtilis NCIM 2162 at 30 ug/ml measured after 12 hrs relative to control; type: functional; conditions: NCIM 2162, 12 h, read-out: GI
Bacillus subtilis [19] = experiment: Growth inhibition of Bacillus subtilis NCIM 2162 at 10 ug/ml measured after 12 hrs relative to control; type: functional; conditions: NCIM 2162, 12 h, read-out: GI
Bacillus subtilis [20] = experiment: Growth inhibition of Bacillus subtilis NCIM 2162 at 1 ug/ml measured after 12 hrs relative to control; type: functional; conditions: NCIM 2162, 12 h, read-out: GI
Escherichia coli [21] = experiment: Antibacterial activity against Escherichia coli NCIM 2576 measured after 8 hrs; type: functional; conditions: NCIM 2576, 8 h
Pseudomonas fluorescens [22] = experiment: Antibacterial activity against Pseudomonas fluorescens NCIM 2059 measured after 8 hrs; type: functional; conditions: NCIM 2059, 8 h
Staphylococcus aureus [23] = experiment: Antibacterial activity against Staphylococcus aureus NCIM 2602 measured after 12 hrs; type: functional; conditions: NCIM 2602, 12 h
Bacillus subtilis [24] = experiment: Antibacterial activity against Bacillus subtilis NCIM 2162 measured after 12 hrs; type: functional; conditions: NCIM 2162, 12 h
[25] = (§1) Growth inhibition of human HeLa cells by MTT assay; type: cell-based; conditions: HeLa cells
HeLa = experiment: as §1; type: cell-based; conditions: hela
[26] = (§2) Growth inhibition of human A549 cells by MTT assay; type: cell-based; conditions: A549 cells
A549 = experiment: as §2; type: cell-based; conditions: a549
[27] = (§3) Growth inhibition of human PANC1 cells by MTT assay; type: cell-based, PANC-1; conditions: PANC-1 cells
PANC-1 = experiment: as §3; type: cell-based; conditions: panc-1
[28] = Selectivity index, ratio of GI50 for human HeLa cells to MIC for Mycobacterium tuberculosis H37Ra ATCC 25177 dormant stage; type: toxicity, cell-based; conditions: read-out: Selectivity Index
[29] = Selectivity index, ratio of GI50 for human HeLa cells to MIC for Mycobacterium bovis BCG ATCC 35743 dormant stage; type: toxicity, cell-based; conditions: read-out: Selectivity Index
[30] = Selectivity index, ratio of GI50 for human A549 cells to MIC for Mycobacterium tuberculosis H37Ra ATCC 25177 dormant stage; type: toxicity; conditions: read-out: Selectivity Index
[31] = Selectivity index, ratio of GI50 for human A549 cells to MIC for Mycobacterium bovis BCG ATCC 35743 dormant stage; type: toxicity; conditions: read-out: Selectivity Index
[32] = Selectivity index, ratio of GI50 for human PANC1 cells to MIC for Mycobacterium tuberculosis H37Ra ATCC 25177 dormant stage; type: toxicity; conditions: PANC-1 cells, read-out: Selectivity Index
[33] = Selectivity index, ratio of GI50 for human PANC1 cells to MIC for Mycobacterium bovis BCG ATCC 35743 dormant stage; type: toxicity; conditions: PANC-1 cells, read-out: Selectivity Index

Compound | inhibition of growth at 30 µg/mL [1] [%] | inhibition of growth at 10 µg/mL [2] [%] | inhibition of growth at 3 µg/mL [3] [%] | inhibition of growth at 30 µg/mL [4] [%] | inhibition of growth at 10 µg/mL [5] [%] | inhibition of growth at 1 µg/mL [6] [%] | IC50 [7] [nM] | MIC90 [7] [µM] | IC50 [8] [nM] | MIC90 [8] [µM] | inhibition of growth at 30 µg/mL (Escherichia coli [9]) [%] | inhibition of growth at 10 µg/mL (Escherichia coli [10]) [%] | inhibition of growth at 1 µg/mL (Escherichia coli [11]) [%] | inhibition of growth at 30 µg/mL (Pseudomonas fluorescens [12]) [%] | inhibition of growth at 10 µg/mL (Pseudomonas fluorescens [13]) [%] | inhibition of growth at 1 µg/mL (Pseudomonas fluorescens [14]) [%] | inhibition of growth at 30 µg/mL (Staphylococcus aureus [15]) [%] | inhibition of growth at 10 µg/mL (Staphylococcus aureus [16]) [%] | inhibition of growth at 1 µg/mL (Staphylococcus aureus [17]) [%] | inhibition of growth at 30 µg/mL (Bacillus subtilis [18]) [%] | also measured
Cc1nc(-c2ccccc2)oc1-c1csc(Cc2ccc(Cl)cc2)n1 | 98 | 93 | 92 | 97 | 97 | 96 | 350 | 7.19 (≈ 2.64 µg/mL) | 320 | 5.8 (≈ 2.13 µg/mL) | 97.9 | 84.5 | 78.7 | 95 | 87.3 | 81 | 92.4 | 85.6 | 79.1 | 90.4 | inhibition of growth at 10 µg/mL (Bacillus subtilis [19]): 85.2%; inhibition of growth at 1 µg/mL (Bacillus subtilis [20]): 74.2%; MIC (Escherichia coli [21]): 18.3 µg/mL; MIC (Pseudomonas fluorescens [22]): 18 µg/mL; MIC (Staphylococcus aureus [23]): 22.7 µg/mL; MIC (Bacillus subtilis [24]): 27.6 µg/mL; GI50 [25]: 124 µg/mL (≈ 339 µM); GI90 (HeLa): > 250 µg/mL; GI50 [26]: > 250 µg/mL; GI90 (A549): > 250 µg/mL; GI50 [27]: > 250 µg/mL; GI90 (PANC-1): > 250 µg/mL; selectivity ratio [28]: 47; selectivity ratio [29]: 58; selectivity ratio [30]: 95; selectivity ratio [31]: 117; selectivity ratio [32]: 95; selectivity ratio [33]: 117
Cc1nc(-c2ccccc2)oc1-c1csc(Cc2cccc(Cl)c2)n1 | 98 | 97 | 96 | 95 | 94 | 94 | 230 | 3.49 (≈ 1.28 µg/mL) | 760 | 3.76 (≈ 1.38 µg/mL) | 95.9 | 88.7 | 74.7 | 95.8 | 82.7 | 79.3 | 92.2 | 81.3 | 73.2 | 92 | inhibition of growth at 10 µg/mL (Bacillus subtilis [19]): 86.8%; inhibition of growth at 1 µg/mL (Bacillus subtilis [20]): 80.3%; MIC (Escherichia coli [21]): 15.4 µg/mL; MIC (Pseudomonas fluorescens [22]): 20.9 µg/mL; MIC (Staphylococcus aureus [23]): 25.6 µg/mL; MIC (Bacillus subtilis [24]): 21.7 µg/mL; GI50 [25]: 68.7 µg/mL (≈ 187 µM); GI90 (HeLa): > 250 µg/mL; GI50 [26]: > 250 µg/mL; GI90 (A549): > 250 µg/mL; GI50 [27]: > 250 µg/mL; GI90 (PANC-1): > 250 µg/mL; selectivity ratio [28]: 54; selectivity ratio [29]: 50; selectivity ratio [30]: 195; selectivity ratio [31]: 181; selectivity ratio [32]: 195; selectivity ratio [33]: 181
Cc1nc(-c2ccc(F)cc2)oc1-c1csc(Cc2cccc(Cl)c2)n1 | 96 | 92 | 93 | 97 | 95 | 98 | 230 | 7.38 (≈ 2.84 µg/mL) | 360 | 6.26 (≈ 2.41 µg/mL) | 91.2 | 86.1 | 70.5 | 93.3 | 85.7 | 72.5 | 95.6 | 82.4 | 71.7 | 93.7 | inhibition of growth at 10 µg/mL (Bacillus subtilis [19]): 85.4%; inhibition of growth at 1 µg/mL (Bacillus subtilis [20]): 79.7%; MIC (Escherichia coli [21]): 69.6 µM; MIC (Pseudomonas fluorescens [22]): 57.4 µM; MIC (Staphylococcus aureus [23]): 55.6 µM; MIC (Bacillus subtilis [24]): 53.8 µM; GI50 [25]: 168 µg/mL (≈ 436 µM); GI90 (HeLa): > 250 µg/mL; GI50 [26]: > 250 µg/mL; GI90 (A549): > 250 µg/mL; GI50 [27]: > 250 µg/mL; GI90 (PANC-1): > 250 µg/mL; selectivity ratio [28]: 59; selectivity ratio [29]: 70; selectivity ratio [30]: 88; selectivity ratio [31]: 104; selectivity ratio [32]: 88; selectivity ratio [33]: 104
